Results reported in publication PMC5443783, “Prostaglandin E2 glyceryl ester is an endogenous agonist of the nucleotide receptor P2Y6” (Scientific Reports, 2017).

Key:
Test in all cases: PathHunter β-Arrestin orphan GPCR panel
Assay type in all cases: cell-based
Settings in all cases: agonist mode, 0.001 µM
GPR3 = biological target: T1, GPR3 (Homo sapiens, UniProt P46089)
T1 construct: purchased DiscoveRx (PathHunter β-Arrestin orphan GPCR panel)
Excerpt: (§1) For screening orphan GPCRs as possible targets for PGE2-G, the PathHunter® β-Arrestin assay (DiscoveRx Co., USA) was used. It monitors the activation of a GPCR by utilizing an enzyme fragment complementation assay with β-galactosidase as the functional reporter. Briefly, the enzyme is split into two complementary portions expressed as fusion proteins in the cell. The enzyme acceptor is fused to β2-arrestin, and the ProLink donor peptide is fused to the GPCR of interest. Upon GPCR stimulation, β2-arrestin is recruited to the receptor, bringing the two fragments of β-galactosidase together. This generates an active enzyme that can convert a chemiluminescent substrate, generating a signal detectable on a standard microplate reader (see manufacturer’s instructions). In total, 78 GPCRs, previously considered orphan and individually transfected into cells, were screened by DiscoveRx (Supplementary Table S1). The percentage activity given in the results is calculated using the following formula: % activity = 100% × (mean RLU of test sample - mean RLU of vehicle control)/mean RLU of vehicle control).

GPR162 = biological target: T2, GPR162 (Homo sapiens, UniProt Q16538)
T2 construct: purchased DiscoveRx (PathHunter β-Arrestin orphan GPCR panel)
Excerpt: as §1

GPR139 = biological target: T3, GPR139 (Homo sapiens, UniProt Q6DWJ6)
T3 construct: purchased DiscoveRx (PathHunter β-Arrestin orphan GPCR panel)
Excerpt: as §1

GPR37 = biological target: T4, GPR37 (Homo sapiens, UniProt O15354)
T4 construct: purchased DiscoveRx (PathHunter β-Arrestin orphan GPCR panel)
Excerpt: as §1

GPR148 = biological target: T5, GPR148 (Homo sapiens, UniProt Q8TDV2)
T5 construct: purchased DiscoveRx (PathHunter β-Arrestin orphan GPCR panel)
Excerpt: as §1

GPR176 = biological target: T6, GPR176 (Homo sapiens, UniProt Q14439)
T6 construct: purchased DiscoveRx (PathHunter β-Arrestin orphan GPCR panel)
Excerpt: as §1

GPR32 = biological target: T7, GPR32 (Homo sapiens, UniProt O75388)
T7 construct: purchased DiscoveRx (PathHunter β-Arrestin orphan GPCR panel)
T7 sequence (O75388 whole entry): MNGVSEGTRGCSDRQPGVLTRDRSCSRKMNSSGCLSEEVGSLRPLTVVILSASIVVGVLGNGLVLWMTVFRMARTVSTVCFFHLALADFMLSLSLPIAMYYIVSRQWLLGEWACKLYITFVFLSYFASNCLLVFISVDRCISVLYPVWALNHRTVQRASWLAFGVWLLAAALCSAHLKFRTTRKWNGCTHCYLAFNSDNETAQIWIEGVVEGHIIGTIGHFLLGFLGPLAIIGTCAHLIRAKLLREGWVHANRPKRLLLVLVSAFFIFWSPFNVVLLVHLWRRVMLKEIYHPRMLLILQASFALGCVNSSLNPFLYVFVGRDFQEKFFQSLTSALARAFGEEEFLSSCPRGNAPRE
Excerpt: as §1

GPR143 = biological target: T8, GPR143 (Homo sapiens, UniProt P51810)
T8 construct: purchased DiscoveRx (PathHunter β-Arrestin orphan GPCR panel)
Excerpt: as §1

GPR12 = biological target: T9, GPR12 (Homo sapiens, UniProt P47775)
T9 construct: purchased DiscoveRx (PathHunter β-Arrestin orphan GPCR panel)
Excerpt: as §1

GPR123 = biological target: T10, GPR123 (Homo sapiens, UniProt Q86SQ6)
T10 construct: purchased DiscoveRx (PathHunter β-Arrestin orphan GPCR panel)
Excerpt: as §1

GPR30 = biological target: T11, GPR30 (Homo sapiens, UniProt Q99527)
T11 construct: purchased DiscoveRx (PathHunter β-Arrestin orphan GPCR panel)
Excerpt: as §1

GPR171 = biological target: T12, GPR171 (Homo sapiens, UniProt O14626)
T12 construct: purchased DiscoveRx (PathHunter β-Arrestin orphan GPCR panel)
T12 sequence (O14626 whole entry): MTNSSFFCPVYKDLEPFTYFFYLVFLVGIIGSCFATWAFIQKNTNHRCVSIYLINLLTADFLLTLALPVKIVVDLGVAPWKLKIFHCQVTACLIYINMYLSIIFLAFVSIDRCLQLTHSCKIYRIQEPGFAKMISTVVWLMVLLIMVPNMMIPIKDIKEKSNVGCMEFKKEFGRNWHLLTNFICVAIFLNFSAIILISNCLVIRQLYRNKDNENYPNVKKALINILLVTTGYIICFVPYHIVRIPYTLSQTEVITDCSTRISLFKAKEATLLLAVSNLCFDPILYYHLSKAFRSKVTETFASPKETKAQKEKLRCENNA
Excerpt: as §1

GPR17 = biological target: T13, GPR17 (Homo sapiens, UniProt Q13304)
T13 construct: purchased DiscoveRx (PathHunter β-Arrestin orphan GPCR panel)
Excerpt: as §1

GPR107 = biological target: T14, GPR107 (Homo sapiens, UniProt Q5VW38)
T14 construct: purchased DiscoveRx (PathHunter β-Arrestin orphan GPCR panel)
Excerpt: as §1

GPR152 = biological target: T15, GPR152 (Homo sapiens, UniProt Q8TDT2)
T15 construct: purchased DiscoveRx (PathHunter β-Arrestin orphan GPCR panel)
Excerpt: as §1

GPR103 = biological target: T16, GPR103 (Homo sapiens, UniProt Q96P65)
T16 construct: purchased DiscoveRx (PathHunter β-Arrestin orphan GPCR panel)
Excerpt: as §1

BAI2 = biological target: T17, BAI2 (Homo sapiens, UniProt O60241)
T17 construct: purchased DiscoveRx (PathHunter β-Arrestin orphan GPCR panel)
T17 sequence (O60241 33-1585): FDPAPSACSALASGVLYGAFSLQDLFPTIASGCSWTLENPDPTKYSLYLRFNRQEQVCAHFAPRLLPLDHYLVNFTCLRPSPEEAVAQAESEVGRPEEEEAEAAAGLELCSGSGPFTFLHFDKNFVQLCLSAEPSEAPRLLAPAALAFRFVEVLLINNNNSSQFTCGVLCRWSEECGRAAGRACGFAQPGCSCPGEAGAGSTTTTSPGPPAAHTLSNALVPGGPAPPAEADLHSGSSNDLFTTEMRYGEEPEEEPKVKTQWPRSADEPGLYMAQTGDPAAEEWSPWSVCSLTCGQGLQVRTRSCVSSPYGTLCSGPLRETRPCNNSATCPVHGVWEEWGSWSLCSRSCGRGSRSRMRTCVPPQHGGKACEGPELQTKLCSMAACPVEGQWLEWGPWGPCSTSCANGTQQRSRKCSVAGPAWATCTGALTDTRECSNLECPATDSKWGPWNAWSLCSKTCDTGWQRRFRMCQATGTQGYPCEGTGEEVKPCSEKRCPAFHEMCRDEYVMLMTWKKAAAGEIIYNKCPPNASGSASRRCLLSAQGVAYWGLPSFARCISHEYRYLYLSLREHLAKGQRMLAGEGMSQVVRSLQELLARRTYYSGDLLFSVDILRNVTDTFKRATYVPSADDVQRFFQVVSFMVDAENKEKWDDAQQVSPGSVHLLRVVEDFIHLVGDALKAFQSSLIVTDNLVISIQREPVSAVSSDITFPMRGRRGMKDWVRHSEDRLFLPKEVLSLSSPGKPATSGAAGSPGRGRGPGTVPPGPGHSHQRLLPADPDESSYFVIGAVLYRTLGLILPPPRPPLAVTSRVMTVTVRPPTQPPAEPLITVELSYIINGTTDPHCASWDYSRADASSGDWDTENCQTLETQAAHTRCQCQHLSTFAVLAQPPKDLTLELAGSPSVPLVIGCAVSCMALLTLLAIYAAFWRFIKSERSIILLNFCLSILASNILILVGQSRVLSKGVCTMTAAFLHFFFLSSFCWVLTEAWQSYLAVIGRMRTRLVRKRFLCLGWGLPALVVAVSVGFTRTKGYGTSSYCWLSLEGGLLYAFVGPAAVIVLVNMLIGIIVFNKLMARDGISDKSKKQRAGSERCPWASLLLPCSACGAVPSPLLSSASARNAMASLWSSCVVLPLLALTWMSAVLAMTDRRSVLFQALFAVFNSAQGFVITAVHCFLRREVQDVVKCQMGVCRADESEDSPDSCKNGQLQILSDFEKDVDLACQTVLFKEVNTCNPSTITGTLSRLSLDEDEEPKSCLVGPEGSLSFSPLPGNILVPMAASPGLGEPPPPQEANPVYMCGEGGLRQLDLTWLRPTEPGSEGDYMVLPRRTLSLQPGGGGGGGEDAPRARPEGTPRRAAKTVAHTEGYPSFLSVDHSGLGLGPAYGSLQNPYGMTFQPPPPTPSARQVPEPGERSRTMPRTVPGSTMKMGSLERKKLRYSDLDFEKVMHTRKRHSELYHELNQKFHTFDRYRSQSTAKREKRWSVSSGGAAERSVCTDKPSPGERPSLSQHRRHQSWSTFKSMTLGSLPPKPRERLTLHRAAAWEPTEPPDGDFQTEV
Excerpt: as §1

DARC = biological target: T18, DARC (Homo sapiens, UniProt Q16570)
T18 construct: purchased DiscoveRx (PathHunter β-Arrestin orphan GPCR panel)
Excerpt: as §1

GPR101 = biological target: T19, GPR101 (Homo sapiens, UniProt Q96P66)
T19 construct: purchased DiscoveRx (PathHunter β-Arrestin orphan GPCR panel)
Excerpt: as §1

GPR37L1 = biological target: T20, GPR37L1 (Homo sapiens, UniProt O60883)
T20 construct: purchased DiscoveRx (PathHunter β-Arrestin orphan GPCR panel)
Excerpt: as §1

GPR173 = biological target: T21, GPR173 (Homo sapiens, UniProt Q9NS66)
T21 construct: purchased DiscoveRx (PathHunter β-Arrestin orphan GPCR panel)
Excerpt: as §1

CCRL2 = biological target: T22, CCRL2 (Homo sapiens, UniProt O00421)
T22 construct: purchased DiscoveRx (PathHunter β-Arrestin orphan GPCR panel)
Excerpt: as §1

BAI3 = biological target: T23, BAI3 (Homo sapiens, UniProt O60242)
T23 construct: purchased DiscoveRx (PathHunter β-Arrestin orphan GPCR panel)
T23 sequence (O60242 25-1522): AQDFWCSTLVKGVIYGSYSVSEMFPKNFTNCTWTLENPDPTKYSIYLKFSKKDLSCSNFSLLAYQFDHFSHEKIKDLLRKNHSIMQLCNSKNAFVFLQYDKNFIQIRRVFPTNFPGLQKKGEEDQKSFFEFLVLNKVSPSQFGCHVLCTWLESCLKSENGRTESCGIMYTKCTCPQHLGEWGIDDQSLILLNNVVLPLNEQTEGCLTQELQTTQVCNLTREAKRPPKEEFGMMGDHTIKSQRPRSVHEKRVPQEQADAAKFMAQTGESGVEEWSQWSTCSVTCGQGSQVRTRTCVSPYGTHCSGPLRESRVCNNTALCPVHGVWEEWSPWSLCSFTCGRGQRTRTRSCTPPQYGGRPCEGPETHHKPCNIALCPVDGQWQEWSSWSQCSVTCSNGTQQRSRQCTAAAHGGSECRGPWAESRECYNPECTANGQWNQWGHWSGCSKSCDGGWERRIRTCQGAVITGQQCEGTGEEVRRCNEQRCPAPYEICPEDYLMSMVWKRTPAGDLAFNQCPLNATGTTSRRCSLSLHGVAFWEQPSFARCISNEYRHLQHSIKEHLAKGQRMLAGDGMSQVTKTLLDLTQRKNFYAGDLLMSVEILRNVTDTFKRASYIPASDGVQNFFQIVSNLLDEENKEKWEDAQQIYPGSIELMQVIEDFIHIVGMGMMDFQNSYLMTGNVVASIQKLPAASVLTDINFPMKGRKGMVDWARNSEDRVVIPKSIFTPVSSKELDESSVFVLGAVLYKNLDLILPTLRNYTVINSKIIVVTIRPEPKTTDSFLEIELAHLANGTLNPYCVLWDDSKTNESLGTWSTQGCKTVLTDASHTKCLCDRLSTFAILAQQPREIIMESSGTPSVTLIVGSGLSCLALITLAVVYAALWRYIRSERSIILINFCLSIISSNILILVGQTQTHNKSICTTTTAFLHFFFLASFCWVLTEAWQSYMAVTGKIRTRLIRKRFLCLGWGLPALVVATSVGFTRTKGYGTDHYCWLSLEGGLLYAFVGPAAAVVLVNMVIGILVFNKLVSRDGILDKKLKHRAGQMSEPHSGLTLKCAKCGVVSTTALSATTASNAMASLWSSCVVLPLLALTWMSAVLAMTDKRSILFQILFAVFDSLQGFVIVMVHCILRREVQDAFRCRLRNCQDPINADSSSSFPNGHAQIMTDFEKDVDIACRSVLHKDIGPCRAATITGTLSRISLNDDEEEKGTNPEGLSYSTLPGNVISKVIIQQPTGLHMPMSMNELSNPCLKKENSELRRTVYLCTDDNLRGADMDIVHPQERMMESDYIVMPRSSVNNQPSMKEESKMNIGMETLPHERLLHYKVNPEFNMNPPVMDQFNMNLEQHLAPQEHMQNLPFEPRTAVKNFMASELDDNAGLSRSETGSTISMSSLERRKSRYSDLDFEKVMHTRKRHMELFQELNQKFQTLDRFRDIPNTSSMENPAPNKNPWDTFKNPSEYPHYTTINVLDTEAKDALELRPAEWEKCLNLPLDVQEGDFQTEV
Excerpt: as §1

GPR142 = biological target: T24, GPR142 (Homo sapiens, UniProt Q7Z601)
T24 construct: purchased DiscoveRx (PathHunter β-Arrestin orphan GPCR panel)
Excerpt: as §1

GPR151 = biological target: T25, GPR151 (Homo sapiens, UniProt Q8TDV0)
T25 construct: purchased DiscoveRx (PathHunter β-Arrestin orphan GPCR panel)
T25 sequence (Q8TDV0 whole entry): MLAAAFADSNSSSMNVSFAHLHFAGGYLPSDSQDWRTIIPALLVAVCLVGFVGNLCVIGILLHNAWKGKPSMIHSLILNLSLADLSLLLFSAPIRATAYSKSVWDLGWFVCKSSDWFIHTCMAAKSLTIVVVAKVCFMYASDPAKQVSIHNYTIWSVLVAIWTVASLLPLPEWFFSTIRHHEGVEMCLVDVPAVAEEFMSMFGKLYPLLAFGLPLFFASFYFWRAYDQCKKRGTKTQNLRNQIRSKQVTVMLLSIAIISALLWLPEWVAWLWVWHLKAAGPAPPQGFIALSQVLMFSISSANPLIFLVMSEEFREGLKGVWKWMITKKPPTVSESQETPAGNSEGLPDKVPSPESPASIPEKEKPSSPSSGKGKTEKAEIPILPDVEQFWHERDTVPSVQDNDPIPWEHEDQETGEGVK
Excerpt: as §1

GPR23 = biological target: T26, GPR23 (Homo sapiens, UniProt Q99677)
T26 construct: purchased DiscoveRx (PathHunter β-Arrestin orphan GPCR panel)
Excerpt: as §1

BAI1 = biological target: T27, BAI1 (Homo sapiens, UniProt O14514)
T27 construct: purchased DiscoveRx (PathHunter β-Arrestin orphan GPCR panel)
Excerpt: as §1

GPR141 = biological target: T28, GPR141 (Homo sapiens, UniProt Q7Z602)
T28 construct: purchased DiscoveRx (PathHunter β-Arrestin orphan GPCR panel)
Excerpt: as §1

GPR150 = biological target: T29, GPR150 (Homo sapiens, UniProt Q8NGU9)
T29 construct: purchased DiscoveRx (PathHunter β-Arrestin orphan GPCR panel)
Excerpt: as §1

ADMR = biological target: T30, ADMR (Homo sapiens, UniProt O15218)
T30 construct: purchased DiscoveRx (PathHunter β-Arrestin orphan GPCR panel)
Excerpt: as §1

GPR18 = biological target: T31, GPR18 (Homo sapiens, UniProt Q14330)
T31 construct: purchased DiscoveRx (PathHunter β-Arrestin orphan GPCR panel)
Excerpt: as §1

GPR149 = biological target: T32, GPR149 (Homo sapiens, UniProt Q86SP6)
T32 construct: purchased DiscoveRx (PathHunter β-Arrestin orphan GPCR panel)
Excerpt: as §1

GPR15 = biological target: T33, GPR15 (Homo sapiens, UniProt P49685)
T33 construct: purchased DiscoveRx (PathHunter β-Arrestin orphan GPCR panel)
Excerpt: as §1

GHSR1B = biological target: T34, GHSR1B (Homo sapiens, UniProt Q92847)
T34 construct: purchased DiscoveRx (PathHunter β-Arrestin orphan GPCR panel)
Excerpt: as §1

GPR157 = biological target: T35, GPR157 (Homo sapiens, UniProt Q5UAW9)
T35 construct: purchased DiscoveRx (PathHunter β-Arrestin orphan GPCR panel)
Excerpt: as §1

GPR25 = biological target: T36, GPR25 (Homo sapiens, UniProt O00155)
T36 construct: purchased DiscoveRx (PathHunter β-Arrestin orphan GPCR panel)
Excerpt: as §1

GPR31 = biological target: T37, GPR31 (Homo sapiens, UniProt O00270)
T37 construct: purchased DiscoveRx (PathHunter β-Arrestin orphan GPCR panel)
Excerpt: as §1

GPR146 = biological target: T38, GPR146 (Homo sapiens, UniProt Q96CH1)
T38 construct: purchased DiscoveRx (PathHunter β-Arrestin orphan GPCR panel)
Excerpt: as §1

GPR26 = biological target: T39, GPR26 (Homo sapiens, UniProt Q8NDV2)
T39 construct: purchased DiscoveRx (PathHunter β-Arrestin orphan GPCR panel)
Excerpt: as §1

GPR161 = biological target: T40, GPR161 (Homo sapiens, UniProt Q8N6U8)
T40 construct: purchased DiscoveRx (PathHunter β-Arrestin orphan GPCR panel)
T40 sequence (Q8N6U8 whole entry): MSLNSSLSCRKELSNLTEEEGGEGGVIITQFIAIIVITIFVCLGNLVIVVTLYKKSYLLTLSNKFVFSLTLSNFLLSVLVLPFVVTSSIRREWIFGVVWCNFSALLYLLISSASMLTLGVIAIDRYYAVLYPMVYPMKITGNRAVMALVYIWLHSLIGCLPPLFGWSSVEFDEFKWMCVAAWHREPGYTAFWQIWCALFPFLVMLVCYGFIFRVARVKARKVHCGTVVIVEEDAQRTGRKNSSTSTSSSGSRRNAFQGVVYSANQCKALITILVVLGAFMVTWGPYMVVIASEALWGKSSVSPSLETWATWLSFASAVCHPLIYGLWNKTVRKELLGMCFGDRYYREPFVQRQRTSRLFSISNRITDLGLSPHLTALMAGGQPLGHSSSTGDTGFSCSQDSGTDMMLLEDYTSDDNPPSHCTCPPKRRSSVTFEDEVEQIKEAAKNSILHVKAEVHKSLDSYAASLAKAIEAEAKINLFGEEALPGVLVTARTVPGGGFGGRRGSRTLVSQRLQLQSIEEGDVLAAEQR
Excerpt: as §1

GPR20 = biological target: T41, GPR20 (Homo sapiens, UniProt Q99678)
T41 construct: purchased DiscoveRx (PathHunter β-Arrestin orphan GPCR panel)
Excerpt: as §1

GPR27 = biological target: T42, GPR27 (Homo sapiens, UniProt Q9NS67)
T42 construct: purchased DiscoveRx (PathHunter β-Arrestin orphan GPCR panel)
Excerpt: as §1

GPR135 = biological target: T43, GPR135 (Homo sapiens, UniProt Q8IZ08)
T43 construct: purchased DiscoveRx (PathHunter β-Arrestin orphan GPCR panel)
Excerpt: as §1

CMKLR2 = biological target: T44, CMKLR2 (Homo sapiens, UniProt P46091)
T44 construct: purchased DiscoveRx (PathHunter β-Arrestin orphan GPCR panel)
Excerpt: as §1

GPR132 = biological target: T45, GPR132 (Homo sapiens, UniProt Q9UNW8)
T45 construct: purchased DiscoveRx (PathHunter β-Arrestin orphan GPCR panel)
Excerpt: as §1

EBI2 = biological target: T46, EBI2 (Homo sapiens, UniProt P32249)
T46 construct: purchased DiscoveRx (PathHunter β-Arrestin orphan GPCR panel)
Excerpt: as §1

GPR182 = biological target: T47, GPR182 (Homo sapiens, UniProt O15218)
T47 construct: purchased DiscoveRx (PathHunter β-Arrestin orphan GPCR panel)
Excerpt: as §1

T1 sequence (P46089 whole entry): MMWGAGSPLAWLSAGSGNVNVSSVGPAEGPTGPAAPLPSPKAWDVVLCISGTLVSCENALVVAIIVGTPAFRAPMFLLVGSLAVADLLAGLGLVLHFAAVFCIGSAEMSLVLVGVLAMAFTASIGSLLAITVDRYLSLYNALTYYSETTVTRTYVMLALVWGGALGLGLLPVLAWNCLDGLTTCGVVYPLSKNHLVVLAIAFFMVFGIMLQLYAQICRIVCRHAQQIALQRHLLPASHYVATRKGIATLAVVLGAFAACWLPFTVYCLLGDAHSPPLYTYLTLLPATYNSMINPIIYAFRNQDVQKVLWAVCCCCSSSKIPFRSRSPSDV

Mean RLU (GPR3): 1524920 RLU
Mean RLU (GPR162): 26360 RLU
Mean RLU (GPR139): 307380 RLU
Mean RLU (GPR37): 822100 RLU
Mean RLU (GPR148): 3640 RLU
Mean RLU (GPR176): 380580 RLU
Mean RLU (GPR32): 129240 RLU
Mean RLU (GPR143): 91680 RLU
Mean RLU (GPR12): 680 RLU
Mean RLU (GPR123): 1221720 RLU
Mean RLU (GPR30): 8540 RLU
Mean RLU (GPR171): 4880 RLU
Mean RLU (GPR17): 805440 RLU
Mean RLU (GPR107): 304860 RLU
Mean RLU (GPR152): 178980 RLU
Mean RLU (GPR103): 56020 RLU
Mean RLU (BAI2): 15400 RLU
Mean RLU (DARC): 105120 RLU
Mean RLU (GPR101): 30940 RLU
Mean RLU (GPR37L1): 36440 RLU
Mean RLU (GPR173): 62220 RLU
Mean RLU (CCRL2): 8400 RLU
Mean RLU (BAI3): 21960 RLU
Mean RLU (GPR142): 2660 RLU
Mean RLU (GPR151): 57420 RLU
Mean RLU (GPR23): 990600 RLU
Mean RLU (BAI1): 864280 RLU
Mean RLU (GPR141): 30420 RLU
Mean RLU (GPR150): 31360 RLU
Mean RLU (ADMR): 514420 RLU
Mean RLU (GPR18): 520 RLU
Mean RLU (GPR149): 29340 RLU
Mean RLU (GPR15): 9440 RLU
Mean RLU (GHSR1B): 2580 RLU
Mean RLU (GPR157): 356620 RLU
Mean RLU (GPR25): 6140 RLU
Mean RLU (GPR31): 7680 RLU
Mean RLU (GPR146): 15800 RLU
Mean RLU (GPR26): 2200 RLU
Mean RLU (GPR161): 20300 RLU
Mean RLU (GPR20): 74500 RLU
Mean RLU (GPR27): 219760 RLU
Mean RLU (GPR135): 16680 RLU
Mean RLU (CMKLR2): 17240 RLU
Mean RLU (GPR132): 620480 RLU
Mean RLU (EBI2): 46540 RLU
Mean RLU (GPR182): 899260 RLU
SMILES: CCCCC[C@H](O)/C=C/[C@H]1[C@H](O)CC(=O)[C@@H]1C/C=C\CCCC(=O)NC(CO)CO [PGE2-SA]
